Laboratory results published in patent US11602521B2, “N,N-dimethyltryptamine compositions and methods” (ATAI Life Sciences AG, priority 2021, dated 2023).
Read-outs that look alike come from different tables or passages of the source.

Assay: DMT plasma concentration after a single SC injection of DMT succinate to rats
Format: in vivo
Settings: for DMT plasma concentration: rats; for AUC0-24 hr/Dose / AUCTlast/Dose / Cmax/Dose / Tlast / AUC(0-t) / Tmax: Day 1, rats; for Cmax: both sexes, Day 1, rats males and females combined; for Cmax / AUC(0-t) / Tmax: rat, plasma; for AUC(0-t): sc
Description: Example 2: Study of DMT Succinate Administered Subcutaneously

[1] = 5 mg/kg DMT succinate single SC
[2] = 10 mg/kg DMT succinate single SC

Q: What does the source list for `CN(C)CCc1c[nH]c2ccccc12` [DMT, N,N-dimethyltryptamine]?
A: DMT plasma concentration (5 mg/kg DMT succinate SC, Time 0.5 h): 228; DMT plasma concentration (5 mg/kg DMT succinate SC, Time 1 h): 202; DMT plasma concentration (5 mg/kg DMT succinate SC, Time 2 h): 27.1; DMT plasma concentration (5 mg/kg DMT succinate SC, Time 4 h): 0; DMT plasma concentration (5 mg/kg DMT succinate SC, Time 8 h): 0; DMT plasma concentration (5 mg/kg DMT succinate SC, Time 12 h): 0; DMT plasma concentration (5 mg/kg DMT succinate SC, Time 24 h): 0; AUC0-24 hr/Dose [1]: 61.1 kg·ng·h/mL/mg; AUCTlast/Dose [1]: 55.7 kg·ng·h/mL/mg; Cmax/Dose [1]: 45.5 kg·ng/mL/mg; Tlast [1]: 2 h; DMT plasma concentration (10 mg/kg DMT succinate SC, Time 0.5 h): 836; DMT plasma concentration (10 mg/kg DMT succinate SC, Time 1 h): 1260; DMT plasma concentration (10 mg/kg DMT succinate SC, Time 2 h): 1170; DMT plasma concentration (10 mg/kg DMT succinate SC, Time 4 h): 149; DMT plasma concentration (10 mg/kg DMT succinate SC, Time 8 h): 0.707; DMT plasma concentration (10 mg/kg DMT succinate SC, Time 12 h): 0; DMT plasma concentration (10 mg/kg DMT succinate SC, Time 24 h): 0; AUC0-24 hr/Dose [2]: 143 kg·ng·h/mL/mg; AUCTlast/Dose [2]: 142 kg·ng·h/mL/mg; Cmax/Dose [2]: 50.5 kg·ng/mL/mg; Tlast [2]: 8 h; Cmax [1]: 228 ng/mL; Cmax [2]: 1260 ng/mL; AUC(0-t) (5 mg/kg, 5 mg/kg DMT succinate single SC, read-out: AUC0-24 hr): 306 ng·h/mL; AUC(0-t) (5 mg/kg, 5 mg/kg DMT succinate single SC, read-out: AUCTlast): 278 ng·h/mL; AUC(0-t) (10 mg/kg, 10 mg/kg DMT succinate single SC, read-out: AUC0-24 hr): 3560 ng·h/mL; AUC(0-t) (10 mg/kg, 10 mg/kg DMT succinate single SC, read-out: AUCTlast): 3560 ng·h/mL; Tmax [1]: 30 min; Tmax [2]: 60 min
